According to US20110015235A1, “NOVEL PHENYLETHYNYL DERIVATIVES OF 8-AZA-BICYCLO[3.2.1]OCTANE AND THEIR USE AS MONOAMINE NEUROT[…]-UPTAKE INHIBITORS” (NeuroSearch A/S, priority 2008, published 2011):
Counter-ions that a name gives are not always drawn.

Tests used:
Format in all cases: biochemical
[1] = test system: serotonine (5-HT) reuptake in synaptosomes; assay: Inhibition of 3H-5-HT reuptake in synaptosomes; details: read-out: 5-HT-uptake IC50
Experimental: (§1) Compounds were tested for their ability to inhibit the reuptake of the monoamine neurotransmitters dopamine (DA) noradrenaline (NA) and serotonine (5-HT) in synaptosomes as described in WO 97/16451 (NeuroSearch A/S).
(§2) The test values are given as IC50 (the concentration (μM) of the test substance which inhibits the specific binding of ^3H-DA, ^3H-NA, or ^3H-5-HT by 50%).

[2] = test system: dopamine (DA) reuptake in synaptosomes; assay: Inhibition of 3H-DA reuptake in synaptosomes; details: read-out: DA-uptake IC50
Experimental: as §1, §2

[3] = test system: noradrenaline (NA) reuptake in synaptosomes; assay: Inhibition of 3H-NA reuptake in synaptosomes; details: read-out: NA-uptake IC50
Experimental: as §1, §2

## CN1[C@@H]2CC[C@H]1C[C@H](Oc1ccc(C#Cc3ccccc3)cc1)C2 [Compound C1, exo-8-Methyl-3-(4-phenylethynyl-phenoxy)-8-aza-bicyclo[3.2.1]octane fumaric acid salt]
[1]
  IC50: 0.72 µM
[2]
  IC50: 0.024 µM
[3]
  IC50: 0.079 µM
